In patent publication US9999222B2, “Herbicidal combination comprising azines” (BASF SE, priority 2014, dated 2018):
“And” between values parts separate entries of the source, which are not always exact repeats. Equal values may be shown once. Read-outs that look alike come from different tables or passages of the source.

Legend:
Assay in all cases: Greenhouse test, pre-emergence treatment
BRADC = format: in vivo, Brachiaria decumbens
Outline: (§1)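 Damage was rated on a 0-100 scale, with 100 meaning no emergence or full destruction of aerial parts. Observed combination effects were set against the additive Colby expectation E=X+Y−(X·Y/100). Spray liquor was water-based, from 10% emulsion concentrates, applied pre-emergence right after sowing in loamy sand (about 3.0% humus). Plants were held at 10-25 °C or 20-35 °C for 2 to 4 weeks.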

ALOMY = format: in vivo, Alopecurus myosuroides
Outline: as §1

GALAP = format: in vivo, Galium aparine; settings: Galium aparine, pre-emergence, 480 h; for inhibition at 125 g/ha: 125 g ai/ha
Outline: as §1

PHACA = format: in vivo, Phalaris canariensis; settings: for inhibition at 250 g/ha: 250 g ai/ha
Outline: as §1

LOLMU = format: in vivo, Lolium multiflorum; settings: pre-emergence
Outline: as §1

KCHSC = format: in vivo, Kochia scoparia; settings: Bassia scoparia, pre-emergence, 480 h, pre-emergence, 125 g ai/ha; read-out: observed % activity 20 DAT
Outline: as §1

AVEFA = format: in vivo, Avena fatua; settings: for inhibition at 125 g/ha / inhibition at 250 g/ha: Avena fatua, 480 h; for inhibition at 125 g/ha: 125 g ai/ha
Outline: as §1

EPHHL = format: in vivo, Euphorbia heterophylla; settings: Euphorbia heterophylla, pre-emergence, 480 h, pre-emergence, 250 g ai/ha; read-out: observed % activity 20 DAT
Outline: as §1

ELEIN = format: in vivo, Eleusine indica; settings: Eleusine indica, 480 h, read-out: observed % activity 20 DAT
Text: The culture containers used were plastic flowerpots containing loamy sand with approximately 3.0% of humus as the substrate. The seeds of the test plants were sown separately for each species.
For the pre-emergence treatment, the active ingredients, which had been suspended or emulsified in water, were applied directly after sowing by means of finely distributing nozzles. The containers were irrigated gently to promote germination and growth and subsequently covered with transparent plastic hoods until the plants had rooted. This cover caused uniform germination of the test plants, unless this had been impaired by the active ingredients.
Depending on the species, the plants were kept at 10-25° C. or 20-35° C., respectively.
The test period extended over 2 to 4 weeks. During this time, the plants were tended, and their response to the individual treatments was evaluated.
Evaluation was carried out using a scale from 0 to 100. 100 means no emergence of the plants, or complete destruction of at least the aerial moieties, and 0 means no damage, or normal course of growth. A moderate herbicidal activity is given at values of at least 60, a good herbicidal activity is given at values of at least 70, and a very good herbicidal activity is given at values of at least 85.
The respective stated components a and b, and if appropriate, c were formulated as a 10% by weight strength emulsion concentrate and, with addition of the amount of solvent system, introduced into the spray liquor used for applying the active compound.
In the examples, the solvent used was water.
In the examples below, using the method of S. R. Colby (1967) “Calculating synergistic and antagonistic responses of herbicide combinations”, Weeds 15, p. 22ff., the value E, which is expected if the activity of the individual active compounds is only additive, was calculated. E=X+Y−(X·Y/100) where • X=percent activity using active compound a at an application rate A; • Y=percent activity using active compound b at an application rate B; • E=expected activity (in %) by a+b at application rates A+B.
If the value found experimentally is higher than the value E calculated according to Colby, a synergistic effect is present.

COMBE = format: in vivo, Commelina benghalensis; settings: Commelina benghalensis, pre-emergence, 480 h, pre-emergence, 250 g ai/ha; read-out: observed % activity 20 DAT
Outline: as §1

POLCO = format: in vivo, Polygonum convolvulus; settings: Fallopia convolvulus, pre-emergence, 480 h, pre-emergence
Outline: as §1

ECHCG = format: in vivo, Echinocloa crus-galli; settings: Echinochloa crus-galli, 480 h, read-out: observed % activity 20 DAT
Outline: as §1

[1] = 62, 5 g ai/ha, 20 DAT, read-out: observed % activity

Question: Which observed % activity (BRADC; 62, 5 g ai/ha, 20 DAT) does the source give for `CSc1nnc(C(C)(C)C)c(=O)n1N` [metribuzin] here?
Answer: 50%

Question: What about the inhibition at 62.5 g/ha (BRADC; Urochloa decumbens, pre-emergence, 480 h, pre-emergence, 62.5 g ai/ha, read-out: observed % activity 20 DAT) of the same compound?
Answer: 45%

Question: What about the “observed % activity 20 DAT” value (BRADC; pre-emergence, 250 g ai/ha) of the same compound?
Answer: 40%

Question: And the observed % activity (ALOMY; 62, 5 g ai/ha, 20 DAT)?
Answer: 35%

Question: What about the inhibition at 250 g/ha (ALOMY; Alopecurus myosuroides, pre-emergence, 480 h, 250 g ai/ha, 20 DAT, read-out: observed % activity) of the same compound?
Answer: 98%

Question: What about the inhibition at 62.5 g/ha (ALOMY; Alopecurus myosuroides, pre-emergence, 480 h, pre-emergence, 62.5 g ai/ha, read-out: observed % activity 20 DAT) of the same compound?
Answer: 0%

Question: And the inhibition at 125 g/ha (ALOMY; Alopecurus myosuroides, pre-emergence, 480 h, pre-emergence, 125 g ai/ha, read-out: observed % activity 20 DAT)?
Answer: 80%

Question: What about the inhibition at 250 g/ha (ALOMY; Alopecurus myosuroides, pre-emergence, 480 h, pre-emergence, 250 g ai/ha, read-out: observed % activity 20 DAT) of the same compound?
Answer: 90%

Question: And the “observed % activity 20 DAT” value (ALOMY; pre-emergence, 250 g ai/ha)?
Answer: 75%

Question: What about the inhibition at 125 g/ha (GALAP; 20 DAT, read-out: observed % activity) of the same compound?
Answer: 30%

Question: What about the inhibition at 250 g/ha (GALAP; 250 g ai/ha, 20 DAT, read-out: observed % activity) of the same compound?
Answer: 30%

Question: And the inhibition at 125 g/ha (GALAP; read-out: observed % activity 20 DAT)?
Answer: 20%

Question: What about the pest or weed control at 62.5 g/ha (GALAP; [1]) of the same compound?
Answer: 30%

Question: And the observed % activity (PHACA; 62, 5 g ai/ha, 20 DAT)?
Answer: 30%

Question: And the inhibition at 125 g/ha (PHACA; Phalaris canariensis, pre-emergence, 480 h, 125 g ai/ha, 20 DAT, read-out: observed % activity)?
Answer: 70%

Question: What about the inhibition at 250 g/ha (PHACA; Phalaris canariensis, pre-emergence, 480 h, 20 DAT, read-out: observed % activity) of the same compound?
Answer: 90%

Question: And the inhibition at 62.5 g/ha (PHACA; Phalaris canariensis, pre-emergence, 480 h, pre-emergence, 62.5 g ai/ha, read-out: observed % activity 20 DAT)?
Answer: 15%

Question: And the inhibition at 125 g/ha (PHACA; Phalaris canariensis, pre-emergence, 480 h, pre-emergence, 125 g ai/ha, read-out: observed % activity 20 DAT)?
Answer: 65%

Question: What about the inhibition at 250 g/ha (PHACA; Phalaris canariensis, pre-emergence, 480 h, pre-emergence, read-out: observed % activity 20 DAT) of the same compound?
Answer: 95%

Question: What about the “observed % activity 20 DAT” value (PHACA; pre-emergence, 125 g ai/ha) of the same compound?
Answer: 75%

Question: And the inhibition at 125 g/ha (LOLMU; Lolium multiflorum, 480 h, 125 g ai/ha, 20 DAT, read-out: observed % activity)?
Answer: 60%

Question: What about the inhibition at 250 g/ha (LOLMU; Lolium multiflorum, 480 h, 250 g ai/ha, 20 DAT, read-out: observed % activity) of the same compound?
Answer: 90%

Question: What about the inhibition at 62.5 g/ha (LOLMU; Lolium multiflorum, 480 h, 62.5 g ai/ha, read-out: observed % activity 20 DAT) of the same compound?
Answer: 0%

Question: And the inhibition at 125 g/ha (LOLMU; Lolium multiflorum, 480 h, 125 g ai/ha, read-out: observed % activity 20 DAT)?
Answer: 55%

Question: And the “observed % activity 20 DAT” value (LOLMU; 125 g ai/ha)?
Answer: 65%

Question: And the “observed % activity 20 DAT” value (LOLMU; 250 g ai/ha)?
Answer: 45% and 75%

Question: And the inhibition at 125 g/ha (KCHSC)?
Answer: 95%

Question: What about the observed % activity (AVEFA; 62, 5 g ai/ha, 20 DAT) of the same compound?
Answer: 0%

Question: What about the inhibition at 125 g/ha (AVEFA; pre-emergence, 20 DAT, read-out: observed % activity) of the same compound?
Answer: 10%

Question: What about the inhibition at 250 g/ha (AVEFA; pre-emergence, 250 g ai/ha, 20 DAT, read-out: observed % activity) of the same compound?
Answer: 55%

Question: What about the inhibition at 125 g/ha (AVEFA; pre-emergence, pre-emergence, read-out: observed % activity 20 DAT) of the same compound?
Answer: 80%

Question: And the inhibition at 250 g/ha (AVEFA; pre-emergence, pre-emergence, 250 g ai/ha, read-out: observed % activity 20 DAT)?
Answer: 70%

Question: What about the “observed % activity 20 DAT” value (AVEFA; pre-emergence, 250 g ai/ha) of the same compound?
Answer: 65%

Question: And the inhibition at 250 g/ha (EPHHL)?
Answer: 85%

Question: And the inhibition at 125 g/ha (ELEIN; 125 g ai/ha)?
Answer: 98%

Question: And the inhibition at 250 g/ha (ELEIN; 250 g ai/ha)?
Answer: 98%

Question: What about the inhibition at 250 g/ha (COMBE) of the same compound?
Answer: 90%

Question: And the inhibition at 125 g/ha (POLCO; 125 g ai/ha, read-out: observed % activity 20 DAT)?
Answer: 20%

Question: What about the inhibition at 250 g/ha (POLCO; 250 g ai/ha, read-out: observed % activity 20 DAT) of the same compound?
Answer: 20%

Question: And the pest or weed control at 62.5 g/ha (POLCO; [1])?
Answer: 0%

Question: What about the inhibition at 125 g/ha (ECHCG; 125 g ai/ha) of the same compound?
Answer: 80%

Question: What about the inhibition at 250 g/ha (ECHCG; 250 g ai/ha) of the same compound?
Answer: 95%
